ChEMBL document CHEMBL3991601, “The target landscape of clinical kinase drugs” (Science, 2017)
Counter-ions that a name gives are not always drawn. Calls of active or inactive are those of the source.

Assays:
[1] = target: T1, Phenylalanine--tRNA ligase beta subunit (Homo sapiens, UniProt Q9NSD9)
T1 sequence (Q9NSD9 whole entry): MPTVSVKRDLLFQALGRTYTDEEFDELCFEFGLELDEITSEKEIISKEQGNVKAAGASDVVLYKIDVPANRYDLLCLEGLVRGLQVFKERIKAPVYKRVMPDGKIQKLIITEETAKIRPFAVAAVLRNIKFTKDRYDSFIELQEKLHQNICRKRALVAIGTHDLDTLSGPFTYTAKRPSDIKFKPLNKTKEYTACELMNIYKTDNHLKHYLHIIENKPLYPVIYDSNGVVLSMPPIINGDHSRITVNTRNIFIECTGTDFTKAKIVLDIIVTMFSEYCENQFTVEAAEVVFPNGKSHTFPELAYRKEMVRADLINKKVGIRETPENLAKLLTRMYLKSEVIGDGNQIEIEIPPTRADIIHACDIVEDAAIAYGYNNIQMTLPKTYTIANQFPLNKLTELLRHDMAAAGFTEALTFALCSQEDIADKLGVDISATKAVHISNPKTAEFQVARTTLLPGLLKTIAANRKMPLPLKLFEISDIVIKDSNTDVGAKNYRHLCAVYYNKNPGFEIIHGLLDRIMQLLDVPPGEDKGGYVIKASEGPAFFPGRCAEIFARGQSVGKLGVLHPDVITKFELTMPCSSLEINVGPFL

[2] = target: T2, Glycogen phosphorylase, brain form (Homo sapiens, UniProt P11216)
T2 sequence (P11216 whole entry): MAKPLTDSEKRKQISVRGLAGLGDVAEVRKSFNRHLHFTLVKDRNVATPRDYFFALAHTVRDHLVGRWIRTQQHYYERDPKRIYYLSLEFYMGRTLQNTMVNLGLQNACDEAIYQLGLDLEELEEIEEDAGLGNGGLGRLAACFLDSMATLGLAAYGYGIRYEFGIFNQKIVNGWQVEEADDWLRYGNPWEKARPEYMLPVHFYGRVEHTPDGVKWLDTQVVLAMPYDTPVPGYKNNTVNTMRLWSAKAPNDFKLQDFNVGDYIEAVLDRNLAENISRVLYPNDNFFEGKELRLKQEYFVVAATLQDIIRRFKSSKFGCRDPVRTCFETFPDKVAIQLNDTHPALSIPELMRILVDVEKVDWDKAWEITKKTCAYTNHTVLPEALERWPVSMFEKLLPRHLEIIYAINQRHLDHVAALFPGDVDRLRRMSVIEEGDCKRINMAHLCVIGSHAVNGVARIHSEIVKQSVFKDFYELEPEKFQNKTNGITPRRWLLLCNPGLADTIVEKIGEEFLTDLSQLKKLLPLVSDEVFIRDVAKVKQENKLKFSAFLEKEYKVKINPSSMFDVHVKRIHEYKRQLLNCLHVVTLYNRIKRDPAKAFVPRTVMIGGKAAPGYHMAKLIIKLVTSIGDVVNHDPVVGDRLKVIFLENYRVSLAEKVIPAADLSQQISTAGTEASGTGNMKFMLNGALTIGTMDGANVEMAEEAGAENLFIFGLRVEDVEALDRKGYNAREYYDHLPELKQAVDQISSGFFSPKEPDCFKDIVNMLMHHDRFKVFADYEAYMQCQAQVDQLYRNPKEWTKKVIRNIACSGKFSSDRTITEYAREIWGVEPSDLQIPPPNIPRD

[3] = target: Serine/threonine-protein kinase SIK2 (Homo sapiens, UniProt Q9H0K1)
Chain of Serine/threonine-protein kinase SIK2 (Q9H0K1 whole entry): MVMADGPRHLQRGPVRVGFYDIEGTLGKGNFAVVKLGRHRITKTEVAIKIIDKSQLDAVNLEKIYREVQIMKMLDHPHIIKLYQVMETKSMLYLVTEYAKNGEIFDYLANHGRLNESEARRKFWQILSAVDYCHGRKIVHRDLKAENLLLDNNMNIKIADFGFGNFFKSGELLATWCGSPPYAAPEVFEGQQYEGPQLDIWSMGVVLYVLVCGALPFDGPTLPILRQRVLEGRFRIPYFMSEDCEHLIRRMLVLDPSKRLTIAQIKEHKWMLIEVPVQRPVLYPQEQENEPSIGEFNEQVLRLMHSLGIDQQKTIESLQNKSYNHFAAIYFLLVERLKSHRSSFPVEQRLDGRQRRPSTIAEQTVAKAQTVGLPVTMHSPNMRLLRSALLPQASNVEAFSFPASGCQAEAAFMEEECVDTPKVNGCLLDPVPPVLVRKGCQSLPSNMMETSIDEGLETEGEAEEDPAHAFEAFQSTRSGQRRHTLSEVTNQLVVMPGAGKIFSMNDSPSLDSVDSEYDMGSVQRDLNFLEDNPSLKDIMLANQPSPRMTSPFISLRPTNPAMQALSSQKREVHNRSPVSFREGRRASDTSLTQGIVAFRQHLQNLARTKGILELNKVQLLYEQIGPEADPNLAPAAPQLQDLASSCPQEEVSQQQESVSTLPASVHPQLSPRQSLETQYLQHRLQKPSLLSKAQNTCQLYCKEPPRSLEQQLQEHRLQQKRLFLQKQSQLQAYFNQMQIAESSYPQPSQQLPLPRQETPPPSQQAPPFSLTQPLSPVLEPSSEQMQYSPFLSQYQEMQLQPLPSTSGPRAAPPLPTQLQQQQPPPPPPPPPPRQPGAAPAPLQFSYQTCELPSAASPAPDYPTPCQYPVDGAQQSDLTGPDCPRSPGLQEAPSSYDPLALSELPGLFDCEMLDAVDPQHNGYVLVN

[4] = target: T3, Serine/threonine-protein kinase TBK1 (Homo sapiens, UniProt Q9UHD2)
T3 sequence (Q9UHD2 whole entry): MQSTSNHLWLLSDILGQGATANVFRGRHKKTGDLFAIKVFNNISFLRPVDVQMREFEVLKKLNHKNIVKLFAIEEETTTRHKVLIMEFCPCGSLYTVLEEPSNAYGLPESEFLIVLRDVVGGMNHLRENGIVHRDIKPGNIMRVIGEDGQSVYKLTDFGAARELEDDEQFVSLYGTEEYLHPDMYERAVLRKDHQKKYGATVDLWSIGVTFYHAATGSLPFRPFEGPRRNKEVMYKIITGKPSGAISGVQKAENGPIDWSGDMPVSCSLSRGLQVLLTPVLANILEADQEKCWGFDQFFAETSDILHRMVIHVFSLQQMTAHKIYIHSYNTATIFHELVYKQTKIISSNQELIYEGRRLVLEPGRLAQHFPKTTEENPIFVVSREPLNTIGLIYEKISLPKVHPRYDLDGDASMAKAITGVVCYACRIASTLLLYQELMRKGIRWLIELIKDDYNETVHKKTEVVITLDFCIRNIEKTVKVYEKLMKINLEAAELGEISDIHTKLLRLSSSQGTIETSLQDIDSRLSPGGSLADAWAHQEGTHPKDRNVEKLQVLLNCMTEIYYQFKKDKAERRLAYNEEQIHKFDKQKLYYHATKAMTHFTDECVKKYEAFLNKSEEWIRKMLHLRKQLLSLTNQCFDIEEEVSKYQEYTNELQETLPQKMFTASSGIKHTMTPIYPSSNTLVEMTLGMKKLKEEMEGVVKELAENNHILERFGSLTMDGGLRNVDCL
Also: in the data inactive means no Kd found up to 30 µM.

Row | Compound | Kd [1] | Kd [2] | Kd [3] | Kd [4]
1 | C[C@@H](Oc1cc(C(=O)Nc2ccc(C(=O)N3CCN(C)CC3)cc2)nnc1N)c1c(Cl)ccc(F)c1Cl | > 30 µM (inactive) | > 30 µM (inactive) | > 30 µM (inactive) | > 30 µM (inactive)
2 | C[C@H]1CNCCCN1S(=O)(=O)c1cccc2cncc(F)c12 | > 30 µM (inactive) | > 30 µM (inactive) | > 30 µM (inactive) | > 30 µM (inactive)
3 | CC(=O)c1cnc2ccc(-c3cc(Cl)c(O)c(Cl)c3)nc2c1N[C@H]1CC[C@H](CN(C)C)CC1 | > 30 µM (inactive) | > 30 µM (inactive) | 0.24 µM (active) | 
4 | CCNC(=O)C#Cc1ccc2c(c1)NC(=O)/C2=C(\Nc1ccc(CN(C)C)cc1)c1ccccc1 | > 30 µM (inactive) | > 30 µM (inactive) | 3.51 µM (active) | 0.759 µM (active)
5 | C=CC(=O)N1CCC[C@H](n2c(=O)n(-c3ccc(Oc4ccccc4)cc3)c3c(N)ncnc32)C1 | > 30 µM (inactive) | > 30 µM (inactive) | > 30 µM (inactive) | > 30 µM (inactive)
6 | Cc1nc2cc(-c3nn(C(C)C)c4ncnc(N)c34)ccc2o1 | > 30 µM (inactive) | > 30 µM (inactive) | > 30 µM (inactive) | > 30 µM (inactive)
7 | COCc1c(-c2ccc(NC(=O)Nc3cc(C(F)(F)F)ccc3F)c(F)c2)c2c(N)ncnn2c1CN1CCOCC1 | > 30 µM (inactive) | > 30 µM (inactive) | > 30 µM (inactive) | > 30 µM (inactive)
8 | Nc1ncnc2c1c(-c1cccc(OCc3ccccc3)c1)cn2[C@H]1C[C@@H](CN2CCC2)C1 [AEW-541] | > 30 µM (inactive) | > 30 µM (inactive) | > 30 µM (inactive) | > 30 µM (inactive)
9 | COc1cc(Nc2ncc3c(n2)-c2ccc(Cl)cc2C(c2c(F)cccc2OC)=NC3)ccc1C(=O)O [ALISERTIB] | > 30 µM (inactive) | > 30 µM (inactive) | > 30 µM (inactive) | 
10 | Cc1nc(NC(=O)N2CCC[C@H]2C(N)=O)sc1-c1ccnc(C(C)(C)C(F)(F)F)c1 [ALPELISIB] | > 30 µM (inactive) | > 30 µM (inactive) | > 30 µM (inactive) | > 30 µM (inactive)
11 | Cc1csc(-c2nnc(Nc3ccc(Oc4ncccc4-c4ccnc(N)n4)cc3)c3ccccc23)c1 [AMG-900] | > 30 µM (inactive) | > 30 µM (inactive) | > 30 µM (inactive) | > 30 µM (inactive)
12 | O=C(Nc1c[nH]nc1-c1nc2cc(CN3CCOCC3)ccc2[nH]1)NC1CC1 [AT-9283] | > 30 µM (inactive) | > 30 µM (inactive) | 0.03 µM (active) | 
13 | C=CC(=O)Nc1cc2c(Nc3ccc(F)c(Cl)c3)ncnc2cc1C#CC(C)(C)N1CCN(C)CC1 [AV-412 FREE BASE] | > 30 µM (inactive) | > 30 µM (inactive) | > 30 µM (inactive) | > 30 µM (inactive)
14 | CNC(=O)c1ccccc1Sc1ccc2c(/C=C/c3ccccn3)n[nH]c2c1 [AXITINIB] | > 30 µM (inactive) | > 30 µM (inactive) |  | 
15 | COc1cc([C@@H]2c3cc4c(cc3[C@H](O)[C@H]3COC(=O)[C@@H]23)OCO4)cc(OC)c1OC [AXL-1717] | > 30 µM (inactive) | > 30 µM (inactive) | > 30 µM (inactive) | > 30 µM (inactive)
16 | NC(=O)Nc1cc(-c2cccc(F)c2)sc1C(=O)N[C@H]1CCCNC1 [AZD-7762] | > 30 µM (inactive) | > 30 µM (inactive) | 0.007 µM (active) | > 30 µM (inactive)

Row | Compound | Kd [1] | Kd [2] | Kd [3] | Kd [4]
17 | Cc1cc(C(=O)NOCCO)c(Nc2ccc(I)cc2F)n(C)c1=O [AZD-8330] | > 30 µM (inactive) | > 30 µM (inactive) | > 30 µM (inactive) | > 30 µM (inactive)
18 | Cn1cnc2c(F)c(Nc3ccc(Br)cc3F)c(C(=O)NOCCO)cc21 [BINIMETINIB] | > 30 µM (inactive) | > 30 µM (inactive) | > 30 µM (inactive) | > 30 µM (inactive)
19 | CCn1c(C(=O)N(C2CC2)C2CC2)cc2c3c(ncn3C)c(Nc3cc(C)n(C)n3)nc21 [BMS-911543] | > 30 µM (inactive) | > 30 µM (inactive) | > 30 µM (inactive) | > 30 µM (inactive)
20 | COc1cc2ncnc(Oc3cccc(NC(=O)Nc4cc(C(C)(C)C(F)(F)F)on4)c3)c2cc1OC [CEP-32496] | > 30 µM (inactive) | > 30 µM (inactive) | > 30 µM (inactive) | > 30 µM (inactive)
21 | Cc1cc(Nc2ncc(Cl)c(Nc3ccccc3S(=O)(=O)C(C)C)n2)c(OC(C)C)cc1C1CCNCC1 [CERITINIB] | > 30 µM (inactive) | > 30 µM (inactive) | > 30 µM (inactive) | > 30 µM (inactive)
22 | CCS(=O)(=O)N1CCN(c2ccc(Nc3ncc(C(N)=O)c(NC4CC4)n3)cc2)CC1 [Cerdulatinib Hydrochloride] | > 30 µM (inactive) | > 30 µM (inactive) | 0.128 µM (active) | 
23 | Cn1cc(C2=C(c3cn(C4CCN(Cc5ccccn5)CC4)c4ccccc34)C(=O)NC2=O)c2ccccc21 [ENZASTAURIN] | > 30 µM (inactive) | > 30 µM (inactive) |  | 
24 | Cc1nc2cc(-n3ncc(C(=O)c4cc5ccccc5[nH]4)c3N)ccc2[nH]1 [FGFR INHIBITOR DEBIO 1347] | > 30 µM (inactive) |  | > 30 µM (inactive) | > 30 µM (inactive)
25 | C[C@@H](Oc1cc(-n2cnc3ccc(CN4CCN(C)CC4)cc32)sc1C(N)=O)c1ccccc1C(F)(F)F [GSK-461364] | > 30 µM (inactive) | > 30 µM (inactive) |  | 
26 | NC(=O)c1c(OCc2c(F)cc(Br)cc2F)nsc1NC(=O)NCCCCN1CCCC1 [OSI-632] | > 30 µM (inactive) | > 30 µM (inactive) | 0.904 µM (active) | 
27 | CCOc1cc2ncc(C#N)c(Nc3ccc(F)c(Cl)c3)c2cc1NC(=O)/C=C/CN(C)C [PELITINIB] | > 30 µM (inactive) | > 30 µM (inactive) |  | > 30 µM (inactive)
28 | Cc1nc(Nc2n[nH]c3c2CN(C(=O)N[C@H](CN(C)C)c2ccccc2)C3(C)C)c2sccc2n1 [PF-03758309] | > 30 µM (inactive) | > 30 µM (inactive) | 1.27 µM (active) | 
29 | CC(=O)NCC(=O)N1[C@@H]2CC[C@H]1c1ccc(Nc3ncc(C(F)(F)F)c(NC4CCC4)n3)cc12 [PF-03814735] | > 30 µM (inactive) | > 30 µM (inactive) | 0.011 µM (active) | 
30 | O=C(NOCCO)c1cc(CN2OCCCC2=O)c(F)c(F)c1Nc1ccc(I)cc1F [RO-4987655] | > 30 µM (inactive) | > 30 µM (inactive) |  | 
31 | N#CC[C@H](C1CCCC1)n1cc(-c2ncnc3[nH]ccc23)cn1 [RUXOLITINIB] | > 30 µM (inactive) | > 30 µM (inactive) |  | 
32 | CO[C@H]1C[C@@H]2CC[C@@H](C)[C@@](O)(O2)C(=O)C(=O)N2CCCC[C@H]2C(=O)O[C@H]([C@H](C)C[C@@H]2CC[C@@H](OC(=O)C(C)(CO)CO)[C@H](OC)C2)CC(=O)[C@H](C)/C=C(\C)[C@@H](O)[C@@H](OC)C(=O)[C@H](C)C[C@H](C)/C=C/C=C/C=C/1C [TEMSIROLIMUS] | > 30 µM (inactive) |  | > 30 µM (inactive) | > 30 µM (inactive)
